Assay results as given in patent US20100286128A1 (priority 2007, published 2010).
pIC50: −log10 of the molar value. Structures can show the parent of a compound that is named as a salt.

Target: α7-subtype of nicotinic receptors (Rattus norvegicus, UniProt Q05941)
Assay: biochemical
Type: binding

Chain of α7-subtype of nicotinic receptors (Q05941 23-502): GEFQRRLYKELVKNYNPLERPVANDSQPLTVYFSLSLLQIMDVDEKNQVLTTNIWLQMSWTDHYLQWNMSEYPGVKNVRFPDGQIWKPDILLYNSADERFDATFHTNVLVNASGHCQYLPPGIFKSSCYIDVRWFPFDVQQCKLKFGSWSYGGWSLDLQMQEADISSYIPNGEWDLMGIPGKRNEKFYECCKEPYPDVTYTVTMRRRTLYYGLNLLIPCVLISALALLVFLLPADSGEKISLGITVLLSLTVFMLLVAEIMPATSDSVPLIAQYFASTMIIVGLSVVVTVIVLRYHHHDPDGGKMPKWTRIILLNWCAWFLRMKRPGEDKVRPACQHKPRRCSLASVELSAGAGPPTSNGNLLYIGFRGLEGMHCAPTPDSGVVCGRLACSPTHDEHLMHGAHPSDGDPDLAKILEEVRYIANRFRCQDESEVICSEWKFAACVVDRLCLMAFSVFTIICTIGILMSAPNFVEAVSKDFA

Q: How did the pIC50 turn out when `c1csc(-c2cnc(N3CCN4CCC3CC4)nc2)c1` [Compound A1, 4-(5-Thiophen-2-yl-pyrimidin-2-yl)-1,4-diaza-bicyclo[3.2.2]nonane hydrochloric acid salt] was run?
A: Its pIC50 is greater than 7.00.
